A word on the LD50: it is the dose at which mortality reaches 50%. A high value points to lower toxicity.

Data set [1] can be described thus: distribution in the bodies of small rodents. The class given is in vivo.
Data set [2] relates to wide range of commonly encountered pathogenic organisms. The experiment in a line: broad spectrum antibiotic activity. The class given is cell-based.
Data set [3] is described as follows: effect of increased inocula. The class given is cell-based.
The nature of data set [4]: administration of 500 mg/kg to mice (lethality). The class given is in vivo. The following applies: for deaths: 500 mg/kg; for LD50: mouse, in vivo.
The subject of data set [5] is strains of Pseudomonas organisms, e.g. strains of Pseudomonas aeruginosa. The data set is described as follows: antibacterial activity against Pseudomonas strains. The class given is cell-based.
A short description of data set [6]: effect of human serum on antibacterial properties. The class given is cell-based.
For a further data set, the system named is gram-negative bacteria. The experiment in a line: experimental infections in mice with gram-negative bacteria. The class given is in vivo.
The nature of data set [7]: serum half-life in primates. The settings on record: extrapolated to man. The class given is in vivo.
Data set [8] deals with strains of Staphylococcus aureus. The data set is described as follows: antibacterial activity against Staphylococcus aureus. The class given is cell-based.
The subject of data set [9] is strains of Pseudomonas aeruginosa. The experiment in a line: protection of mice against strains of Pseudomonas aeruginosa. The settings on record: for protection compared with treatment with an aminoglycoside such as amikacin: vs amikacin. The class given is in vivo.

For `NC(=O)C[n+]1ccc(SCC2=C(C(=O)[O-])N3C(=O)[C@@H](NC(=O)/C(=N\OC4(C(=O)O)CCC4)c4csc(N)n4)[C@H]3SC2)cc1` [(6R,7R)-7-[(Z)-2-(2-Aminothiazol-4-yl)-2-(1-carboxycyclobut-1-oxyimino)acetamido]-3-[(1-carbamoylmethylpyridinium-4-yl)thiomethyl]ceph-3-em-4-carboxylate], in data set [1], the “distribution in the body” value was “well distributed” and the “therapeutic levels after subcutaneous injection” value is “useful therapeutic levels”. In addition, the general antibiotic properties entry in data set [2] is “to an outstanding extent”. In data set [3], the “effect of increased inocula against the compounds” value is “low”. For the same compound, in data set [4], the deaths result is reported as “did not cause any deaths” and the 50% lethal dose (LD50) was > 500 mg/kg. Besides, the “activity against strains of Pseudomonas” value in data set [5] is “excellent activity”. Besides, the “antibacterial properties in human serum” value in data set [6] is “generally are not impaired by human serum”. Besides, the “treatment of experimental infections with gram-negative bacteria” value in the data set with gram-negative bacteria is “successfully treated”. Moreover, in [7], the “probable half-life in man from serum half-life in primates” value is reported as “comparatively long half-life in man”. For the same compound, the “activity against strains of Staphylococcus aureus” value in data set [8] is “useful activity”. Further, in [9], the “protection against strains of Pseudomonas aeruginosa” value is recorded as “good protection” and the “protection compared with treatment with an aminoglycoside such as amikacin” value is “comparable with the treatment with an aminoglycoside such as amikacin”.
For the compound `CC(C)(O/N=C(\C(=O)N[C@@H]1C(=O)N2C(C(=O)[O-])=C(CSc3cc[n+](CC(N)=O)cc3)CS[C@H]12)c1csc(N)n1)C(=O)O` [(6R,7R)-7-[(Z)-2-(2-Aminothiazol-4-yl)-2-(2-carboxyprop-2-oxyimino)acetamido] -3-[(1-carbamoylmethylpyridinium-4-yl)thiomethyl]ceph-3-em-4-carboxylate], in data set [1], the “distribution in the body” value is listed as “well distributed” and the “therapeutic levels after subcutaneous injection” value was “useful therapeutic levels”. In addition, the general antibiotic properties result in data set [2] is on record as “to an outstanding extent”. The “effect of increased inocula against the compounds” value in data set [3] is listed as “low”. Moreover, in data set [4], the deaths result is reported as “did not cause any deaths” and the LD50 was > 500 mg/kg. For the same compound, the “activity against strains of Pseudomonas” value in [5] is on record as “excellent activity”. Further, the “antibacterial properties in human serum” value in data set [6] is “generally are not impaired by human serum”. The “treatment of experimental infections with gram-negative bacteria” value with gram-negative bacteria is recorded as “successfully treated”. In addition, in data set [7], the “probable half-life in man from serum half-life in primates” value is given as “comparatively long half-life in man”. In addition, the “activity against strains of Staphylococcus aureus” value in data set [8] is given as “useful activity”. In addition, in data set [9], the “protection against strains of Pseudomonas aeruginosa” value was “good protection” and the “protection compared with treatment with an aminoglycoside such as amikacin” value is reported as “comparable with the treatment with an aminoglycoside such as amikacin”.
